Results from PubChem BioAssay AID330 (DTP/NCI, 2004).
“And” between values parts separate entries of the source, which are not always exact repeats. Equal values may be shown once. Inconclusive results and toxic doses are left out. How the source made its calls: active means survival T/C of 150% or more; inactive means T/C below 125% in these data.

Tested on: P388 leukemia ip, CD2F1 mice, survival T/C
Experiment: NCI In Vivo Anticancer Drug Screen. Data for tumor model P388 Leukemia (intraperitoneal) in CD2F1 (CDF1) mice
Conditions: endpoint: median survival time, higher = longer survival
Method in brief: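 Mice carrying the transplanted tumor received test compound or vehicle. Survival was recorded in each group, and the value is the treated-group measurement divided by that of the vehicle-treated control group.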

[1] = dose: 60.0 mg/kg/injection, schedule: Q01DX005 (ip), vehicle: saline with Tween-80
[2] = dose: 120.0 mg/kg/injection, schedule: Q01DX005 (ip), vehicle: saline with Tween-80
[3] = dose: 240.0 mg/kg/injection, schedule: Q01DX005 (ip), vehicle: saline with Tween-80
[4] = dose: 50.0 mg/kg/injection, schedule: Q01DX005 (ip), vehicle: saline with Tween-80
[5] = dose: 100.0 mg/kg/injection, schedule: Q01DX005 (ip), vehicle: saline with Tween-80
[6] = dose: 200.0 mg/kg/injection, schedule: Q01DX005 (ip), vehicle: saline with Tween-80
[7] = dose: 6.25 mg/kg/injection, schedule: Q01DX005 (ip), vehicle: Klucel (hydroxypropylcellulose) (HPC)
[8] = dose: 12.5 mg/kg/injection, schedule: Q01DX005 (ip), vehicle: Klucel (hydroxypropylcellulose) (HPC)
[9] = dose: 25.0 mg/kg/injection, schedule: Q01DX005 (ip), vehicle: Klucel (hydroxypropylcellulose) (HPC)

Measured: T/C

COC(=O)C1CC(C(=O)c2ccccc2)N2C=CC=C(C#N)C12 (stereo not given)
inactive: dose: 4.38 mg/kg/injection, schedule: Q01DX005 (ip), vehicle: Klucel (hydroxypropylcellulose) (HPC) 101 % of control | dose: 8.75 mg/kg/injection, schedule: Q01DX005 (ip), vehicle: Klucel (hydroxypropylcellulose) (HPC) 91 % of control | dose: 17.5 mg/kg/injection, schedule: Q01DX005 (ip), vehicle: Klucel (hydroxypropylcellulose) (HPC) 101 % of control

COc1cc2c(cc1OC)C1CC(=O)CCN1CC2 (stereo not given)
inactive: dose: 12.5 mg/kg/injection, schedule: Q01DX009 (ip), vehicle: Klucel (hydroxypropylcellulose) (HPC) 111 % of control | dose: 25.0 mg/kg/injection, schedule: Q01DX009 (ip), vehicle: Klucel (hydroxypropylcellulose) (HPC) 106 % of control | dose: 50.0 mg/kg/injection, schedule: Q01DX009 (ip), vehicle: Klucel (hydroxypropylcellulose) (HPC) 101 % of control | dose: 100.0 mg/kg/injection, schedule: Q01DX009 (ip), vehicle: Klucel (hydroxypropylcellulose) (HPC) 107 % of control

O=C(Nc1ccc(Cl)cc1)Nc1nnc2nc(C(C(=O)c3ccc(F)cc3)c3nc4nnc(NC(=O)Nc5ccc(Cl)cc5)n4[nH]c3=O)c(=O)[nH]n12
inactive: [1] 103 % of control | [2] 93 % of control | [3] 86 % of control

CCCCCCCCCCCCCCCC[N+](C)(C)Cc1ccccc1
inactive: dose: 6.25 mg/kg/injection, schedule: Q04DX003 (ip), vehicle: saline 98 % of control | dose: 12.5 mg/kg/injection, schedule: Q04DX003 (ip), vehicle: saline 98 % of control | dose: 25.0 mg/kg/injection, schedule: Q04DX003 (ip), vehicle: saline 100 % of control

FC(F)(Br)C(F)(Cl)Br (stereo not given)
inactive: [4] 101 % of control | [5] 99 % of control | [6] 114 % of control

CCCCC[C@@H]1CC=CC(NC(=O)OCc2ccccc2)C1C=O (stereo not given in full)
inactive: [1] 100 % of control | [2] 103 % of control | [3] 105 % of control

COC(=O)CCC(=O)C(C#N)c1nc2ccccc2s1 (stereo not given)
inactive: [4] 94 % of control | [5] 92 % of control | [6] 92 % of control

COc1ccc2c(c1)C1CCN(C)CC1OC2=O (stereo not given)
inactive: dose: 12.5 mg/kg/injection, schedule: Q01DX009 (ip), vehicle: saline with Tween-80 92 % of control | dose: 25.0 mg/kg/injection, schedule: Q01DX009 (ip), vehicle: saline with Tween-80 98 % of control | dose: 50.0 mg/kg/injection, schedule: Q01DX009 (ip), vehicle: saline with Tween-80 100 % of control and 104 % of control

COc1cccc2c1C(=O)c1c(O)c3c(c(O)c1C2=O)C[C@@](O)(CCO)C[C@@H]3OC1CC(N)C(O)C(C)O1 (stereo not given in full)
inactive: dose: 1.2 mg/kg/injection, schedule: Q04DX003 (ip), vehicle: water 119 % of control | dose: 2.4 mg/kg/injection, schedule: Q04DX003 (ip), vehicle: water 106 % of control and 112 % of control | dose: 4.7 mg/kg/injection, schedule: Q04DX003 (ip), vehicle: water 120 % of control | dose: 75.0 mg/kg/injection, schedule: Q04DX003 (ip), vehicle: water 97 % of control
active: dose: 0.39 mg/kg/injection, schedule: Q01DX009 (ip), vehicle: water 151 % of control | dose: 0.78 mg/kg/injection, schedule: Q01DX009 (ip), vehicle: water 158 % of control and 164 % of control | dose: 1.56 mg/kg/injection, schedule: Q01DX009 (ip), vehicle: water 153 % of control and 158 % of control | dose: 3.13 mg/kg/injection, schedule: Q01DX009 (ip), vehicle: water 163 % of control and 164 % of control | dose: 6.25 mg/kg/injection, schedule: Q01DX009 (ip), vehicle: water 153 % of control | dose: 9.4 mg/kg/injection, schedule: Q04DX003 (ip), vehicle: water 154 % of control | dose: 18.8 mg/kg/injection, schedule: Q04DX003 (ip), vehicle: water 158 % of control

COc1nc(N)c([N+](=O)[O-])c(C(Br)Br)n1
inactive: [7] 104 % of control | [8] 100 % of control | [9] 91 % of control

Cc1ccc(-n2c(C)nc3[nH]cc(C)c3c2=N)cc1
inactive: [7] 101 % of control | [8] 99 % of control | [9] 99 % of control

COCCc1nn[nH]n1
inactive: dose: 50.0 mg/kg/injection, schedule: Q01DX009 (ip), vehicle: saline 110 % of control | dose: 100.0 mg/kg/injection, schedule: Q01DX009 (ip), vehicle: saline 115 % of control | dose: 200.0 mg/kg/injection, schedule: Q01DX009 (ip), vehicle: saline 109 % of control
